Test results: the supplement of paper PMC5579334

Tests used:
[1] = system: HS-PSS; assay: relative IC50 (inflection point of fitted dose-response curve, CellTox-Green cytotoxicity, 72 h; top asymptote may be below 50%); higher = less potent
How it was run: (§1)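 MPNST cell lines and primary human Schwann cells were incubated 72 h at 37 °C in 384-well plates holding five 10-fold compound dilutions. CellTox-Green was added before seeding at a final 1:1000 dilution and reported fluorescence from DNA released by disrupted cells. Signals were scaled to vehicle and positive-control wells, and cultures failing plate quality control were dropped. Drug sensitivity score and relative IC50 come from four-parameter logistic fits, with IC50 censored at the top concentration.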

[2] = system: HSC1; assay: as above
How it was run: as §1

[3] = system: HSC2; assay: as above
How it was run: as §1

[4] = system: ST8814; assay: as above
How it was run: as §1

[5] = system: STS26T; assay: as above
How it was run: as §1

[6] = system: HS-Sch-2; assay: relative IC50 (inflection point of fitted dose-response curve, CellTiter-Glo viability, 72 h; top asymptote may be below 50% inhibition); higher = less potent
How it was run: (§2)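 Viability was scored by CellTiter-Glo ATP luminescence, scaled from vehicle to positive-control wells, with duplicates averaged where present. The cells, MPNST lines and primary human Schwann cells at 750–1000 per well, sat 72 h at 37 °C, 5% CO2, in 384-well plates preprinted with each compound at five concentrations in 10-fold steps. Four-parameter logistic fits were run on the data. These fits give drug sensitivity score and relative IC50 censored at the top concentration, and percent inhibition is reported at the top concentration.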

[7] = system: HSC1; assay: as above
How it was run: as §2

[8] = system: S1507-2; assay: as above
How it was run: as §2

[9] = system: S462; assay: as above
How it was run: as §2

[10] = system: ST8814; assay: as above
How it was run: as §2

[11] = system: STS26T; assay: as above
How it was run: as §2

[12] = system: YST-1; assay: as above
How it was run: as §2

[13] = system: HSC2; assay: as above
How it was run: as §2

[14] = system: HS-PSS; assay: as above
How it was run: as §2

| SMILES | relative IC50 [1] | relative IC50 [2] | relative IC50 [3] | relative IC50 [4] | relative IC50 [5] | relative IC50 [6] | relative IC50 [7] | relative IC50 [8] | relative IC50 [9] | relative IC50 [10] | relative IC50 [11] | relative IC50 [12] | relative IC50 [13] | relative IC50 [14] |
| --- | --- | --- | --- | --- | --- | --- | --- | --- | --- | --- | --- | --- | --- | --- |
| O=C(O)c1ccc(-c2c[nH]c3ncc(-c4ccccc4)cc23)cc1C1CCCC1 | > 10 µM | > 10 µM | > 10 µM | > 10 µM | > 10 µM | 2.98 µM | > 10 µM | > 10 µM | > 10 µM | > 10 µM | > 10 µM | > 10 µM | – | – |
| c1cc(CN2CCCNCCNCCCNCC2)ccc1CN1CCCNCCNCCCNCC1 [Plerixafor aq] | – | > 10 µM | 2.81 µM | > 10 µM | – | – | > 10 µM | > 10 µM | > 10 µM | > 10 µM | > 10 µM | – | > 10 µM | – |
| CNC(=O)c1ccc(N2C(=S)N(c3cnc(C#N)c(C(F)(F)F)c3)C(=O)C23CCC3)cc1F [ARN 509] | > 10 µM | > 10 µM | > 10 µM | > 10 µM | – | – | > 10 µM | > 10 µM | > 10 µM | > 10 µM | > 10 µM | – | > 10 µM | – |
| NC(=O)c1cccc2cn(-c3ccc(C4CCCNC4)cc3)nc12 (stereo not given) [MK-4827] | – | > 10 µM | > 10 µM | 3.04 µM | – | – | 2.11 µM | 1.68 µM | 1.4 µM | 1.65 µM | 1.7 µM | – | – | – |
| CN(N=O)C(=O)N[C@@H]1[C@@H](O)[C@H](O)[C@@H](CO)O[C@@H]1O [Streptozocin] | > 10 µM | > 10 µM | > 10 µM | > 10 µM | > 10 µM | – | > 10 µM | > 10 µM | > 10 µM | – | > 10 µM | – | > 10 µM | – |
| Clc1ccc(C(c2ccccc2Cl)C(Cl)Cl)cc1 (stereo not given) [Mitotane] | > 10 µM | > 10 µM | > 10 µM | > 10 µM | > 10 µM | > 10 µM | > 10 µM | > 10 µM | > 10 µM | – | > 10 µM | > 10 µM | > 10 µM | > 10 µM |
| C[C@]1(O)C[C@@H](c2nc(-c3ccc4ccc(-c5ccccc5)nc4c3)c3c(N)nccn32)C1 [Linsitinib] | > 10 µM | > 10 µM | > 10 µM | > 10 µM | > 10 µM | 0.77 µM | 0.00391 µM | 0.0207 µM | 0.101 µM | > 10 µM | – | 0.567 µM | > 10 µM | > 10 µM |
| O=S(=O)(c1cccc2cnccc12)N1CCCNCC1 [Fasudil] | – | > 50 µM | > 50 µM | > 50 µM | 20.2 µM | 16.7 µM | 13 µM | 19.7 µM | 16.1 µM | – | 17.6 µM | 16.5 µM | 16.6 µM | 19.8 µM |
| CC(C)(C)NC(=O)[C@H]1CC[C@H]2[C@@H]3CC[C@H]4NC(=O)C=C[C@]4(C)[C@H]3CC[C@]12C [Finasteride] | > 10 µM | > 10 µM | > 10 µM | > 10 µM | > 10 µM | > 10 µM | > 10 µM | > 10 µM | > 10 µM | > 10 µM | – | > 10 µM | > 10 µM | > 10 µM |
| COc1cc(Nc2ncc(F)c(Nc3ccc4c(n3)NC(=O)C(C)(C)O4)n2)cc(OC)c1OC [Tamatinib] | > 10 µM | > 10 µM | – | – | – | – | 0.665 µM | > 10 µM | > 10 µM | – | – | > 10 µM | 1.59 µM | > 10 µM |
| CN1CCc2c(c3ccccc3n2Cc2ccc(C(=O)NO)cc2)C1 [Tubastatin A] | > 10 µM | > 10 µM | > 10 µM | > 10 µM | 2.76 µM | 3.37 µM | 3.18 µM | 2.43 µM | 3.27 µM | 3.47 µM | 2.84 µM | 1.6 µM | – | 3.01 µM |
| FC(F)c1nc2ccccc2n1-c1nc(N2CCOCC2)nc(N2CCOCC2)n1 [ZSTK474] | > 10 µM | > 10 µM | – | > 10 µM | – | 1.05 µM | 0.876 µM | 0.251 µM | 0.582 µM | 0.658 µM | 0.244 µM | 0.248 µM | 0.692 µM | 0.831 µM |
| Nc1ccn([C@@H]2O[C@H](CO)[C@@H](O)[C@@H]2O)c(=O)n1 [Cytarabine] | 0.336 µM | 2.18 µM | 1.96 µM | 0.786 µM | – | 0.688 µM | 0.283 µM | 1.52 µM | 0.163 µM | 0.689 µM | 0.236 µM | 0.21 µM | 0.29 µM | 0.479 µM |
| C[C@]12CC[C@@H]3c4ccc(O)cc4C[C@@H](CCCCCCCCC[S+]([O-])CCCC(F)(F)C(F)(F)F)[C@H]3[C@@H]1CC[C@@H]2O (stereo not given in full) [Fulvestrant] | > 1 µM | > 1 µM | > 1 µM | > 1 µM | > 1 µM | > 1 µM | – | > 1 µM | > 1 µM | > 1 µM | > 1 µM | > 1 µM | – | – |
| NC(=O)c1ccc(I)c([N+](=O)[O-])c1 [Iniparib] | > 10 µM | > 10 µM | > 10 µM | > 10 µM | – | > 10 µM | > 10 µM | > 10 µM | > 10 µM | > 10 µM | > 10 µM | > 10 µM | > 10 µM | > 10 µM |
